Test results taken from US20250387388A1, “COMPOUND AS TRK INHIBITOR AND/OR RET INHIBITOR AND USE THEREOF” (Medinno Pharmaceutical Technology (Zhuhai) Co., Ltd., priority 2022, published 2025).

Test system: phenol-induced cervicitis model in rats
Assay: Phenol-induced cervicitis model in rats
Type: in vivo, SD rats
Experimental: • Blank Control Group (untreated) (N=5+2 rats) • Cervicitis Model Group (vehicle treatment: 20% DMA+65% PEG400+15% H2O) (N=8+2 rats) • Cervicitis Model+Positive Control Drug Group (Jieeryin lotion (1:5 dilution), 2 times/day, for 7 consecutive days) (N=8 rats) • Cervicitis Model+Low-Dose MDI-1228 Compound Lotion Group (dose: 3 mg/kg/time, 2 times/day, for 7 consecutive days) (N=8 rats) • Cervicitis Model+Medium-Dose MDI-1228 Compound Lotion Group (dose: 10 mg/kg/time, 2 times/day, for 7 consecutive days) (N=8 rats) • Cervicitis Model+High-Dose MDI-1228 Compound Lotion Group (dose: 30 mg/kg/time, 2 times/day, for 7 consecutive days) (N=8 animals) • Experimental Environment: Temperature 20° C.-26° C., humidity 40%-70%.
SD rats were acclimated for one week. After anesthesia with isoflurane, the rats were fixed in a supine position on the operation table with their limbs secured. A 1 mL syringe with a blunt needle was inserted approximately 1 cm into the rat's vagina, and 0.1 mL of 25% phenol slurry was slowly injected. The vaginal opening was immediately plugged with a sterile cotton ball, and the rat was kept in a head-down and tail-high position for 20 minutes. The injection was performed every 2 days, for a total of 3 times. The vaginal opening of the rats was observed, and the model was considered successful if there was white secretion, vaginal congestion, and swelling.
The successfully modelled rats were randomly divided into 6 groups. Animals in each group were treated according to their group assignment. The blank group (untreated) received no treatment. The positive control group was administrated with Jieeryin lotion (1:5 dilution) for vaginal irrigation twice a day, for 7 consecutive days. The low, medium, and high-dose MDI-1228 compound lotions were used for vaginal irrigation twice a day, for 7 consecutive days. The model group was given an equal amount of vehicle treatment, with the same way and duration as the test drug groups.
Clinical Symptoms Observation: The general condition of the rats (activity, diet, mental state) was continuously observed, and the rats were weighted before and after administration. Daily observations and recordings were made of changes in the local area and secretions of the rat's vulva, whether the vaginal opening is dry, and whether there is congestion, swelling in the vulva and vaginal mucosa, and whether there is vaginal fluid blood. Scoring was conducted according to the following table.
Organ Weight and Organ Index Calculation: After the last administration, the rats were sacrificed the next day, and the uterus was removed, with fat tissue and mesentery dissected away, and the weight of the cervix (from the vaginal opening to the bifurcation of the double uterus) and the liver and spleen were measured to calculate the organ index.
Pathological Detection: ELISA detection for serum markers IL-4, IL-6, IL-1β, TNF-α; ELISA detection for plasma CP; biochemical detection for MDA and T-SOD in cervical tissue.
HE Staining: Tissue samples from animal vaginal, cervical, and uterine were excised, fixed in 4% paraformaldehyde, dehydrated, embedded in paraffin, and sectioned and HE stained for observation of histopathological morphology changes. The reagents and instruments required for HE staining included: Hematoxylin staining solution (AR 11800-1, BOSTER); Eosin staining solution (ARl1800-2, BOSTER); Ultra-clean advanced mounting medium (YZB, BASO); Scott's blueing solution (G1865, Solarbio), etc. Medication refrigerator (BYC-310, Shandong Bokai Biotech); Microscope (CX41 OLYMPUS); Microtome (BQ-318D, Berne); Electric heating blast drying oven (DHG-9070A. Hengke Scientific Instrument Co., Ltd.). The taken tissue was rinsed with running water for several hours, dehydrated through a series of ethanol solutions (70%, 80%, 90%), and then treated with a mixture of pure alcohol and xylene at a ratio of 1:1 for 15 minutes, followed by xylene I for 15 minutes and xylene II for 15 minutes (until transparent). […]

[1] = 30 mg/kg/time, 2 times/day, 7 days
[2] = MDI-1228 at various doses (3, 10, 30 mg/kg)

CCc1cc(O)c(F)cc1-c1ccc2c(-c3nc4c([nH]3)CN(C(=O)N3CC[C@H](O)C3)C4)n[nH]c2c1 [MDI-1228, (S)-(2-(6-(2-ethyl-5-fluoro-4-hydroxyphenyl)-1H-indazol-3-yl)-4,6-dihydropyrrolo[3,4-d]imidazol-5-(1H)-yl)(3-hydroxylpyrrolidin-1-yl)ketone]
Vaginal, cervical and uterine tissue HE staining (3 mg/kg/time, 2 times/day, 7 days): still showed significant inflammatory cell infiltration in the entire tissue structure | Vaginal, cervical and uterine tissue HE staining (10 mg/kg/time, 2 times/day, 7 days): marked reduction in inflammatory cells | Comprehensive score of cervicitis (30 mg/kg/time vaginal irrigation, 2 times/day, 7 days, vs. model group): significantly reducing the comprehensive score of cervicitis | Cervical index [1]: significantly reduced | Reduction of area under the continuous scoring curve, edema score [1]: 19.61% | Reduction of area under the continuous scoring curve, erythema score [1]: 29.99% | Reduction of area under the continuous scoring curve, secretion score [1]: 21.05% | Reduction of area under the continuous scoring curve, vulvar inflammation score [1]: 23.42% | Vaginal, cervical and uterine tissue HE staining [1]: showing the best effect | Conditions of erythema, edema, and secretion [2]: can improve the conditions of erythema, edema, and secretion | Levels of inflammatory factors [2]: decrease the levels of inflammatory factors IL-10, IL-4, IL-6, and TNF-α
